According to publication PMC8229129, “Local Colonic Administration of a Serine Protease Inhibitor Improves Post-Inflammatory Visceral Hypersensitivity in Rats” (Pharmaceutics, 2021):

What was measured:
[1] = Observation of side-effects after administration in pharmacokinetic experiments; type: in vivo; conditions: rats, within 180 min after administration (1 mg/kg i.v. or 5 mg/kg intracolonic)
Procedure: (§1) To evaluate the pharmacokinetic properties of UAMC-00050, it was administered in male Sprague–Dawley rats (200–225 g) either colonically (5 mg/kg, in a volume of 200 µL 5% DMSO solution) or intravenously (1 mg/kg in a volume of 200 µL 5% DMSO solution). Plasma samples were collected after 5, 15, 30, 45, 60, 90, 120, and 180 min via the tail vein and stored at −80 °C until analysis.

kallikrein 8 = system: kallikrein 8; design: method as in PMID 29911328; conditions: in vitro; cited from earlier work
[2] = system: chymotrypsin-like activity in colonic tissue; assay: Chymotrypsin-like activity in colonic tissue after intracolonic administration (Suc-Ala-Ala-Pro-Phe-AMC); type: in vivo, Sprague–Dawley rats; conditions: post-colitis rats, 5 mg/kg intracolonic, colon harvested 90 min after administration, median (IQR), n = 12; vehicle 1.54 (1.06), p < 0.05
Procedure: (§2) The serine protease inhibitor UAMC-00050 (0.1–1.0–2.5–5.0 mg/kg, dissolved in a volume of 200 µL) or its vehicle (5% DMSO in H2O) was delivered colonically using a flexible catheter (18 G, length 4.5 cm) under short-lasting isoflurane anesthesia (5.0% induction, 1.5% maintenance). To prevent expulsion of the enema, animals were held in a Trendelenburg position for 90 s. Doses for intracolonic administration were based on the doses known to be effective via an i.p. administration and adapted afterwards based on preliminary results.
(§3) Trypsin-like, chymotrypsin-like, cathepsin G, elastase-like, and kallikrein activities were determined in colon tissue and fecal samples to profile serine protease activity. […]
(§4) Boc-Gln-Ala-Arg-AMC (75 µM) and n-Tosyl-Gly-Pro-Arg-AMC (100 µM) in 50 mM Tris-HCl pH 8.0 containing 120 mM NaCl were used to measure the trypsin-like activity. […] The fluorescence was measured during 20 min at 37 °C on a Tecan Infinite F200 Pro microtiter plate reader. The other activities were assessed in a similar assay, using the substrates mentioned below. Chymotrypsin-like and kallikrein activity were measured with Suc-Ala-Ala-Pro-Phe-AMC (0.45 mM) and H-Pro-Phe-Arg-AMC (0.45 mM), respectively. Elastase-like activity was measured using two assays, one using Suc-Ala-Ala-Pro-Val-AMC as a substrate and the other using Suc-Ala-Ala-Ala-AMC (both 0.45 mM). […]

[3] = system: trypsin-like activity in colonic tissue; assay: Trypsin-like activity in colonic tissue after intracolonic administration (fluorogenic substrates); type: in vivo, Sprague–Dawley rats; conditions: post-colitis rats, 5 mg/kg intracolonic, colon harvested 90 min after administration, median (IQR), n = 12; vehicle 1.08 (1.19), p < 0.01
Procedure: as §2, §3, §4

[4] = system: elastase-like, cathepsin G and kallikrein activities in colonic tissue; assay: Other specific proteolytic activities in colonic tissue of post-colitis rats after intracolonic administration; type: in vivo, Sprague–Dawley rats; conditions: 5 mg/kg intracolonic, 90 min
Procedure: as §2, §3, §4

chronic colitis = system: chronic colitis; design: method as in doi:10.1016/S0016-5085(16)33277-2; conditions: murine CD4+CD25−CD62L+ T-cell transfer model for chronic colitis; cited from earlier work
pancreatic elastase = pancreatic elastase (Homo sapiens, UniProt Q9UNI1); assay: Inhibition of pancreatic elastase by UAMC-00050 (IC50); type: biochemical; conditions: in vitro
Procedure: Here, the potency of UAMC-00050 to inhibit two other serine proteases, chymotrypsin and pancreatic elastase, with specificity was determined.

[5] = Plasma concentrations after intracolonic administration (LC-MS/MS); type: in vivo, Sprague–Dawley rats; conditions: rat; for Plasma concentration: intracolonic 5 mg/kg
Procedure: as §1
Sample preparation and analysis of plasma samples consisted of protein precipitation followed by direct injection in a liquid chromatography–tandem mass spectrometry (LC-MS/MS) instrument. Briefly, 100 µL of plasma was spiked with 20 µL of nordazepam-D5 used as internal standard for quantification (yielding in a final concentration of 485 ng/mL) and afterwards 180 µL of acetonitrile was added to precipitate proteins. Subsequently, the samples were vortexed for 2.5 min at 2000× g and centrifuged for 5 min at 10,000× g. In a next step, 100 µL of the supernatant was transferred to a 0.20 µm centrifugal filter to remove remaining particles. After centrifugation for 5 min at 10,000× g, the remaining filtrate was transferred to an autosampler vial ready to be analyzed with LC-MS/MS. A seven-level point calibration curve with final concentrations ranging between 5 and 1000 ng/mL and a curve weighting factor of 1/x^2 was prepared in blank mouse plasma using different working solution standards of UAMC-00050 and a fixed amount of internal standard. The lower limit of quantification of the method was 5 ng/mL.
A gradient was applied as follows: 0–0.5 min: 5% B; 0.5–10 min 5–100% B; 10–12 min 100% B; and 12–12.1 min 5% B. The total run time was 18 min and the injection volume was set to 5 µL. Detection and quantification of UAMC-00050 were performed with an Agilent 6410 triple quadrupole MS system with an electrospray interface (ESI) operating in positive ionization mode. The following source parameters were applied: gas temperature 350 °C, gas flow 10 L/min, nebulizer 35 psi, and capillary voltage 4000 V. Compound-dependent MS parameters are summarized in Table 1. The most abundant transition of UAMC-00050 was used as quantifier and the other transitions were used for confirmation (qualifiers). For compound confirmation, the following criteria were used: the quantifier/qualifier ratio should fall within ±15% of the ratio observed in calibrators and the relative retention time should fall within 2.5% of the values observed in the calibrators.

cathepsin G = system: cathepsin G; design: method as in PMID 29911328; conditions: in vitro; cited from earlier work

pancreatic elastase, sequence (Q9UNI1 19-258): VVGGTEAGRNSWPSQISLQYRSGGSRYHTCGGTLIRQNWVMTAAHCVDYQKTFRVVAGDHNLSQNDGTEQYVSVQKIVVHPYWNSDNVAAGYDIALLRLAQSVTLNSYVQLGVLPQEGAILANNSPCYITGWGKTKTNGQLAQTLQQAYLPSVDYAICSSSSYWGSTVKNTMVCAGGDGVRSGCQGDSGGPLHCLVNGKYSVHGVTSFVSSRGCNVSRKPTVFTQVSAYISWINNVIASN

For `CC(=O)Nc1ccc(OP(=O)(Oc2ccc(NC(C)=O)cc2)C(Cc2ccc(N=C(N)N)cc2)NC(=O)OCc2ccccc2)cc1.Cl` (stereo not drawn) [UAMC-00050], the Side-effects [1] is listed as “No side-effects”, the “inhibition of kallikrein 8” value (kallikrein 8) is listed as “efficiently inhibits” and the “Chymotrypsin-like activity in colonic tissue” value [2] is listed as 0.84 (0.57) U/g. The “Trypsin-like activity in colonic tissue (Tos-Gly-Pro-Arg-AMC)” value [3] was 0.23 (0.18) U/g, the “Effect on the other specific proteolytic activities (elastase-like, cathepsin G, kallikrein) in colonic tissue” value [4] was “No effect” and the Effect on inflammation (chronic colitis) was “anti-inflammatory effects”. The IC50 (pancreatic elastase) was > 10 µM, the “Plasma concentration after intracolonic administration as share of plasma concentration after intravenous administration” value ([5]; 5 min after administration, 5 mg/kg intracolonic versus 1 mg/kg intravenous) was 5.4% and the Plasma concentration ([5]; 30–180 min after administration, lower limit of quantification 5 ng/mL) was “below the lower limit of quantification”. For the same molecule, the Plasma concentration ([5]; 5 min after administration, mean ± SEM, n = 5) was 14.1 ± 2.9 ng/mL, the Plasma concentration ([5]; 15 min after administration, mean ± SEM, n = 5) was 10.3 ± 1.3 ng/mL and the “inhibition of cathepsin G” value (cathepsin G) was “efficiently inhibits”.
